Marks after values point to notes of the source that are not given here.
Tests used:
Assay type in all cases: cell-based, human
trophoblast cells [1] = experiment: Annexin V/PI flow cytometry assay on early stage apoptosis in Mifepristone-Trophoblast Cell Model; settings: comparative study, mifepristone induced model
Description: For example, the effect of apoptotic mRNA expressions in trophoblastic cells treated by mifepristone for 24 hours is shown in FIG. 3.
The experimental data on the cell proliferation rate, early apoptosis rate, Caspase-3 protein expression and cell supernatants HCG level expression were then subject to stepwise regression analysis, canonical correlation analysis and result optimization analysis. From these analyses, it is concluded that the preferred ratio among X1:X2:X3:X4:X5 is 0.9:0.00342:0.09037:0.0795:0. […] The number means the percentage of the cells underwent apoptosis.
(§1) Hyperoside and asperosaponin are individual compounds isolated from herbal medicines cuscuta chinensis and taxillus sutchuenensis, respectively. Progesterone is a compound often used to prevent spontaneous abortion and was used in present invention as positive treatment control for comparison with of the novel composition of the present invention.
The cells 4×10^5 cells/ml were seeded in the 6-well plate, 1 ml per well and incubated at 37° C., 5% CO2 for 48 h. Then, the cells were grouped and treated accordingly (see above). The assays were conducted as follows:
At the end of the predetermined treatment, the cells were digested and spun down(2000 rpm×5 min centrifugation). Discard the medium, wash the cells twice with cold PBS (resuspension and then 2000 rpm×5 min centrifugation). Remove the supernatant and resuspend the cell in 400 μl 1×Annexin V binding solution. Then, add 5 μl AnnexinV-EGFP staining solution to the cell suspension and mix gently. Incubate the cells at 2-8° C. in dark for 15 minutes. Add 10 μl PI (propidium iodide) and mix gently and incubate the cells in dark at 2-8° C. for 5 min. Detection by flow cytometry was conducted within one hour. The detection was repeated three times.

trophoblast cells [2] = experiment: MTT assay on cell proliferation in mifepristone induced trophoblast model; settings: Blank = 1.0000
Description: as §1
The trophoblast cells (adjust to 1.5×10^4/ml) were seeded in wells on a 96-well plate, […]. After incubating for 48 hours at 37° C., 5% CO2, the cells were grouped and treated accordingly (see above). Assays were conducted after treatment for 24 h and 48 h according to the following procedure:
Add 10 μl 1×MTT (3-(4,5-dimethylthiazol-2-yl)-2,5-diphenyltetrazolium bromide) to the well and continue incubation at 37° C., 5% CO2 for 4 hours to reduce MTT to formazan. Remove the supernatant from the well and add to each well 150 μl DMSO (dimethylsulfoxide) to dissolve formazan. After shaking the 96 plate for 10 min to make crystals completely dissolved, determine the OD value at 490 nm with a enzyme immunoassay analyzer. The determination was repeated three times.

β-HCG = experiment: Radioimmunoassay on HCG expression in cell supernatant; settings: mifepristone induced model; duration of treatment 48 h
Description: as §1
The cells (4×10^5 cells/ml) were seeded in the 6-well plate, 1 ml per well, and incubated at 37° C., 5% CO2 for 48 hours. Then, the cells were grouped and treated accordingly (see above). After 48 hour treatment, cell supernatants were collected and sent to the Department of Nuclear Medicine, Guangzhou University of Traditional Chinese Medicine, for measuring HCG (human chorionic gonadotropin) via a routine radioimmunoassay procedure.

Caspase-3 = experiment: Western blot assay on Caspase-3 expression in trophoblastic cells; settings: mifepristone induced model, Blank = 1.000
Description: as §1
(§2) Extraction of total cellular protein and cytoplasmic protein: The cells 4×10^5 cells/ml were seeded in the 6-well plate. After incubating at 37° C., 5% CO2 for 44 hours, the cells are grouped and treated according to the experiment scheme (see above). Extraction conducted at two treatment points: 24-24 h (treat with agent for 24 hours and continue incubation for 24 hours after removing the agent) and 24-48 h (treat with agent for 24 hours and continue incubation for 48 hours after removing the agent). The assays were conducted as follows:
(§3) At each predetermined time point, discard the culture medium, wash the cells three times with cold PBS solution, 3 min each time. After removing PBS, put the cells on ice. Add lysis buffer, 150 μl per well, and then place the cells on ice for 5 min, scrape the surface cells and transfer the cell lysate to an EP tube. Put the tube on ice for 30 min. After centrifuge (4° C., 12000 rpm/min, 15 min), transfer the supernatant to the EP tube and store it at −20° C. Determine the protein concentration with the BCA method and adjust the protein concentration to the same level. Add 3 μl 5× SDS-PAGE sampling buffer, denature at 100° C. for 5 min, and store the samples at −20° C. for Western Blotting. The Western Blotting procedure was conducted in a standard manner known in the art, description of which is omitted herewith for the sake of brevity.

Caspase-9 = experiment: Western blot assay on Caspase-9 expression in trophoblastic cells; settings: mifepristone induced model, Blank = 1.000
Description: as §1, §2, §3

Bax = experiment: Western blot assay on Bax expression in trophoblastic cells; settings: mifepristone induced model, Blank = 1.000
Description: as §1, §2, §3

BcI-2/Bax = experiment: Western blot assay on Bcl-2/Bax expression ratio in trophoblastic cells; settings: mifepristone induced model, Blank = 1.000
Description: Hyperoside and asperosaponin are individual compounds isolated from herbal medicines cuscuta chinensis and taxillus sutchuenensis, respectively.
as §2, §3

XIAP = experiment: Western blot assay on XIAP expression in trophoblastic cells; settings: mifepristone induced model, Blank = 1.000
Description: as §1, §2, §3

XIAP mRNA = experiment: Quantitative PCR assay on XIAP mRNA; settings: ΔΔCt, mifepristone induced model, time point not given
Source text: as §1
(§4) Design of primers: Based on search for the sequence of the target gene mRNA in GenBank, the following primers were designed: […]
(§5) Total RNA extraction: Cells 4×10^5 cells/ml were seeded in the 6-well plate, 1 ml per well, and incubated at 37° C., 5% CO2 for 48 h. Then, the cells were grouped and treated according to the experiment scheme (see above). Extraction was conducted at two time points: 24 h and 24-24 h (24 hours of agent treatment and 24 hours after removing the agent), according to the procedures described as follows:
(§6) Placed the cells in the 1.5 ml EP tube, add Trizol 1 ml, and mix by shaking. Add chloroform 0.2 ml, cover tightly, and shake vigorously for 15 s. Store it at 4° C. for 2-3 min, centrifugal at 4° C., 12000 rpm×15 min. Transfer the supernatant to a new 1.5 ml EP tube, add an equal volume of isopropanol, incubate at 4° C. for 10 min, and centrifuge 4° C., 12000 rpm×10 min. After discarding the supernatant, add 75% ethanol (containing DEPC water) to wash the precipitate once, centrifugal 4° C. 7500 rpm×5 min, and discard ethanol. Air or vacuum dry for 5-10 min (not completely dry), add DEPC water to dissolve RNA, store at −80° C. for further process.
(§7) Reverse transcription: In a sterile 0.2 ml centrifuge tubes, prepare the reaction according to the following:
(§8) Quantitative PCR:experimental design is in accordance with standard ΔΔCt analytical method. The experimental procedure is as follows:
(§9) (2) Prepare reaction mix (performed on ice):
(§10) (3) PCR reaction: using a standard three-step reaction procedure: […]

Bax mRNA = experiment: Quantitative PCR assay on Bax mRNA; settings: ΔΔCt, mifepristone induced model, time point not given
Source text: as §1, §4, §5, §6, §7, §8, §9, §10

Bcl-2 mRNA = experiment: Quantitative PCR assay on Bcl-2 mRNA; settings: ΔΔCt, mifepristone induced model, time point not given
Source text: as §1, §4, §5, §6, §7, §8, §9, §10

Bcl-2 mRNA/Bax mRNA = experiment: Quantitative PCR assay, Bcl-2 mRNA/Bax mRNA ratio; settings: ΔΔCt, mifepristone induced model, time point not given
Source text: as §1, §4, §5, §6, §7, §8, §9, §10

Caspase-3 mRNA = experiment: Quantitative PCR assay on Caspase-3 mRNA; settings: ΔΔCt, mifepristone induced model, time point not given
Source text: as §1, §4, §5, §6, §7, §8, §9, §10

Caspase-9 mRNA = experiment: Quantitative PCR assay on Caspase-9 mRNA; settings: ΔΔCt, mifepristone induced model, time point not given
Source text: as §1, §4, §5, §6, §7, §8, §9, §10

Structure (SMILES)	early stage apoptosis, percentage of cells underwent apoptosis (Annexin V FITC/PI) (trophoblast cells [1]; duration of treatment 24 h)	early stage apoptosis, percentage of cells underwent apoptosis (Annexin V FITC/PI) (trophoblast cells [1]; duration of treatment 48 h) [%]	cell proliferation rate as compared to the Blank (MTT) (trophoblast cells [2]; duration of treatment 24 h)	cell proliferation rate as compared to the Blank (MTT) (trophoblast cells [2]; duration of treatment 48 h)	β-HCG level in cell supernatant (β-HCG)	Caspase-3 expression, relative amount of protein compared with Blank (Caspase-3; 24 h)	Caspase-3 expression, relative amount of protein compared with Blank (Caspase-3; 48 h)	Caspase-9 expression, relative amount of protein compared with Blank (Caspase-9; 24 h)	Caspase-9 expression, relative amount of protein compared with Blank (Caspase-9; 48 h)	Bax expression, relative amount of protein compared with Blank (Bax; 24 h)	Bax expression, relative amount of protein compared with Blank (Bax; 48 h)	BcI-2/Bax expression ratio, relative ratio of the proteins compared with Blank (BcI-2/Bax; 24 h)	BcI-2/Bax expression ratio, relative ratio of the proteins compared with Blank (BcI-2/Bax; 48 h)	XIAP expression, relative amount of protein compared with Blank (XIAP; 24 h)	XIAPmRNA level (XIAP mRNA)	BaxmRNA level (Bax mRNA)	Bcl-2 mRNA level (Bcl-2 mRNA)	Bcl-2 mRNA/BaxmRNA (Bcl-2 mRNA/Bax mRNA)	Caspase-3 mRNA level (Caspase-3 mRNA)	Caspase-9 mRNA level (Caspase-9 mRNA)	further results
CC1(C)CC[C@]2(C(=O)O[C@@H]3O[C@H](CO[C@@H]4O[C@H](CO)[C@@H](O)[C@H](O)[C@H]4O)[C@@H](O)[C@H](O)[C@H]3O)CC[C@]3(C)C(=CC[C@@H]4[C@@]5(C)CC[C@H](O[C@@H]6OC[C@H](O)[C@H](O)[C@H]6O)[C@@](C)(CO)[C@@H]5CC[C@]43C)[C@@H]2C1 [Asperosaponin, asperosaponin]	16.067 ± 2.974 **^ΔΔ %	15.933 ± 3.742	0.787 ± 0.086	0.809 ± 0.019	0.870 ± 0.026 MIU/ML	1.372 ± 0.338^Δ	1.508 ± 0.217*^ΔΔ▴▴□	1.962 ± 0.273^Δ	1.887 ± 0.742	1.503 ± 0.180^ΔΔ▾▾	1.804 ± 0.558	1.905 ± 0.297**^ΔΔ∇∇▴▴	1.503 ± 0.454	2.127 ± 0.421	1.253 ± 1.540	3.181 ± 1.576	4.908 ± 3.037	1.88 ± 1.196	2.783 ± 0.541	1.240 ± 0.945	XIAP expression, relative amount of protein compared with Blank (XIAP; 48 h): 1.706 ± 0.492
O=c1c(O[C@@H]2O[C@H](CO)[C@H](O)[C@H](O)[C@H]2O)c(-c2ccc(O)c(O)c2)oc2cc(O)cc(O)c12 [Hyperoside, hyperoside]	16.367 ± 1.942 **^ΔΔ %	15.633 ± 2.136	0.788 ± 0.072	0.869 ± 0.029	1.377 ± 0.142 MIU/ML	1.847 ± 0.123	1.648 ± 0.206**^Δ▴	2.079 ± 0.267^Δ	2.221 ± 0.651	1.687 ± 0.519*^ΔΔ▴▴▾▾	2.544 ± 0.383	1.544 ± 0.726^ΔΔ∇∇	0.518 ± 0.186	1.528 ± 0.317	1.315 ± 0.706	2.469 ± 1.058^Δ	2.726 ± 1.419	1.470 ± 1.321	4.640 ± 1.865^Δ	3.512 ± 3.828	XIAP expression, relative amount of protein compared with Blank (XIAP; 48 h): 1.673 ± 0.768
CC(=O)[C@H]1CC[C@H]2[C@@H]3CCC4=CC(=O)CC[C@]4(C)[C@H]3CC[C@]12C [Positive Control, progesterone]	17.400 ± 1.229 **^ΔΔ %	16.367 ± 1.447	0.805 ± 0.030	0.825 ± 0.061	1.067 ± 0.038*^Δ MIU/ML	–	–	–	–	–	–	0.537 ± 0.051	–	–	1.037 ± 0.425	0.442 ± 0.442^ΔΔ	2.971 ± 2.839	7.351 ± 6.001	3.089 ± 1.778^ΔΔ	1.286 ± 0.780	–
